{
  "source": "patent US12391737B2",
  "about": "“Soluble NPY2 receptor agonists” (Boehringer Ingelheim International GmbH, priority 2020, dated 2025)",
  "key": {"[1]": {"target": "T1, Human Neuropeptide Y2 Receptor (Homo sapiens, UniProt P49146)", "T1 construct": "purchased CHEMICON HTS066M", "T1 sequence (P49146 1-381)": "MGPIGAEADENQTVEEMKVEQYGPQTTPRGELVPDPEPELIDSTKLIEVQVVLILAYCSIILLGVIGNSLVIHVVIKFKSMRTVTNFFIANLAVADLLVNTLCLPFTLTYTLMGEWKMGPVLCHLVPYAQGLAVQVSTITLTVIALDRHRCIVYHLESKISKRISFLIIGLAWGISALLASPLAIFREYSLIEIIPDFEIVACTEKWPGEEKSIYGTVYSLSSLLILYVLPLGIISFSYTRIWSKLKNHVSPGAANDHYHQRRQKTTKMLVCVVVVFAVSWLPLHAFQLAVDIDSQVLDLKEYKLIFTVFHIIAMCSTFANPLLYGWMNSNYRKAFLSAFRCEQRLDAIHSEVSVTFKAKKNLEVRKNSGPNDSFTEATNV", "experiment": "Radioligand binding competition assay (RLB)", "conditions": "Table 3, 125I-PYY(1-36) competition; read-out: Ki", "procedure,_shortened": "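Receptor membranes, 0.5 μg/well; buffer 50 mM HEPES/5 mM MgCl2/1 mM CaCl2/0.2% ovalbumin, pH 7.4; 2 h RT, shaking. GF/C filtration, cold HEPES/500 mM NaCl wash, scintillation count. IC50 by nonlinear regression.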"}, "[2]": {"experiment": "Solubility determination", "conditions": "for Sol6: pH 6; for Sol7: pH 7", "procedure,_shortened": "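Sample: TFA-salt peptide at 10 mg/ml target in 0.1 M Na diphosphate, pH 6.4 or 7.0, shaken 2 h RT, filtered, diluted to 1 mg/ml.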"}},
  "note": "*1 amine or outer side, *2 acyl side, *3 side chain or, on linkers, in order; H or OH if unused. Where a SMILES comes first, the peptide text is derived from it. Side-chain parts run from the residue outwards. The star is where a group is joined. C18 diacid = O=C(O)CCCCCCCCCCCCCCCCC(=O)*; γGlu = O=C(O)[C@H](CCC(=O)[*:2])N[*:1]; Isovaleryl = CC(C)CC(=O)*; Ahx = NCCCCCC(=O)O",
  "data": [
    {"smiles": "CC(C)CC(=O)N[C@@H](C)C(=O)N1CCC[C@H]1C(=O)N[C@@H](CCC(=O)O)C(=O)N[C@@H](CCCCNC(=O)CCCCCNC(=O)CC[C@H](NC(=O)CCCCCCCCCCCCCCCCC(=O)O)C(=O)O)C(=O)N1CCC[C@H]1C(=O)N[C@@H](CCC(=O)O)C(=O)N[C@@H](CCC(=O)O)C(=O)N[C@@H](CC(=O)O)C(=O)N[C@@H](C)C(=O)N[C@@H](CO)C(=O)N1CCC[C@H]1C(=O)N[C@@H](CCC(=O)O)C(=O)N[C@@H](C)C(=O)N[C@@H](CC(C)C)C(=O)N[C@@H](CCC(N)=O)C(=O)N[C@@H](CCC(=O)O)C(=O)N[C@@H](Cc1ccc(O)cc1)C(=O)N[C@@H](Cc1ccc(O)cc1)C(=O)N[C@H](C(=O)N[C@@H](CO)C(=O)N[C@@H](CC(C)C)C(=O)N[C@@H](CCCNC(=N)N)C(=O)N[C@@H](Cc1c[nH]cn1)C(=O)N[C@@H](Cc1ccc(O)cc1)C(=O)N[C@@H](Cc1ccc(O)cc1)C(=O)N[C@@H](CC(N)=O)C(=O)N[C@@H](Cc1c[nH]c2ccccc12)C(=O)N[C@@H](CC(C)C)C(=O)N[C@H](C(=O)N[C@@H](CCCNC(=N)N)C(=O)N[C@@H](CCC(N)=O)C(=O)N[C@@H](CCCNC(=N)N)C(=O)N[C@@H](Cc1ccc(O)cc1)C(N)=O)[C@@H](C)O)C(C)C", "note": "[Compound 39, N{alpha-4}-(3-methylbutanoyl)-N{epsilon-7}-(6-[(4S)-4-carboxy-4-(17-carboxyheptadecanamido)butanamido]hexanoyl)[4A,7K,9E,16A,18Q,19E,22V,28Y,30W,31L]-hPYY(4-36)]", "values": [
      {"measurement": "Ki", "setting": "[1]", "result": 2.73, "unit": "nM"},
      {"measurement": "Sol6", "setting": "[2]", "result": 10.0, "unit": "mg/mL"},
      {"measurement": "Sol7", "setting": "[2]", "result": 10.0, "unit": "mg/mL"}
    ]},
    {"smiles": "CC(C)CC(=O)N[C@@H](C)C(=O)N1CCC[C@H]1C(=O)N[C@@H](CCC(=O)O)C(=O)N[C@@H](CCCCNC(=O)CCCCCNC(=O)CC[C@H](NC(=O)CCCCCCCCCCCCCCCCC(=O)O)C(=O)O)C(=O)N1CCC[C@H]1C(=O)N[C@@H](CCC(=O)O)C(=O)N[C@@H](CCC(=O)O)C(=O)N[C@@H](CC(=O)O)C(=O)N[C@@H](C)C(=O)N[C@@H](CCC(=O)O)C(=O)N1CCC[C@H]1C(=O)N[C@@H](CCC(=O)O)C(=O)N[C@@H](CCC(=O)O)C(=O)N[C@@H](CC(C)C)C(=O)N[C@@H](CCC(N)=O)C(=O)N[C@@H](CCCNC(=N)N)C(=O)N[C@@H](Cc1ccc(O)cc1)C(=O)N[C@@H](Cc1ccc(O)cc1)C(=O)N[C@H](C(=O)N[C@@H](CO)C(=O)N[C@@H](CC(C)C)C(=O)N[C@@H](CCCNC(=N)N)C(=O)N[C@@H](Cc1c[nH]cn1)C(=O)N[C@@H](Cc1ccc(O)cc1)C(=O)N[C@@H](Cc1ccc(O)cc1)C(=O)N[C@@H](CCC(N)=O)C(=O)N[C@@H](Cc1c[nH]c2ccccc12)C(=O)N[C@@H](CC(C)C)C(=O)N[C@H](C(=O)N[C@@H](CCCNC(=N)N)C(=O)N[C@@H](CCC(N)=O)C(=O)N[C@@H](CCCNC(=N)N)C(=O)N[C@@H](Cc1ccc(O)cc1)C(N)=O)[C@@H](C)O)[C@@H](C)O", "note": "[Compound 41, N{alpha-4}-(3-methylbutanoyl)-N{epsilon-7}-(6-[(4S)-4-carboxy-4-(17-carboxyheptadecanamido)butanamido]hexanoyl)[4A,7K,9E,13E,18Q,22T,28Y,30W,31L]-hPYY(4-36)] (Isovaleryl-APEK([Ahx-γGlu-C18 diacid])PEEDAEPEELQRYYTSLRHYYQWLTRQRY-NH2)", "values": [
      {"measurement": "Ki", "setting": "[1]", "result": 19.8, "unit": "nM"},
      {"measurement": "Sol6", "setting": "[2]", "result": 9.8, "unit": "mg/mL"},
      {"measurement": "Sol7", "setting": "[2]", "result": 10.0, "unit": "mg/mL"}
    ]},
    {"smiles": "CC(C)CC(=O)N[C@@H](C)C(=O)N1CCC[C@H]1C(=O)N[C@@H](CCC(=O)O)C(=O)N[C@@H](CCCCNC(=O)CCCCCNC(=O)CC[C@H](NC(=O)CCCCCCCCCCCCCCCCC(=O)O)C(=O)O)C(=O)N1CCC[C@H]1C(=O)N[C@@H](CCC(=O)O)C(=O)N[C@@H](CCC(=O)O)C(=O)N1CCC[C@H]1C(=O)N[C@@H](C)C(=O)N[C@H](C(=O)N1CCC[C@H]1C(=O)N[C@@H](CCC(=O)O)C(=O)N[C@@H](CCC(=O)O)C(=O)N[C@@H](CC(C)C)C(=O)N[C@@H](CCC(N)=O)C(=O)N[C@@H](CCCNC(=N)N)C(=O)N[C@@H](Cc1ccc(O)cc1)C(=O)N[C@@H](Cc1ccc(O)cc1)C(=O)N[C@H](C(=O)N[C@@H](CO)C(=O)N[C@@H](CC(C)C)C(=O)N[C@@H](CCCNC(=N)N)C(=O)N[C@@H](Cc1c[nH]cn1)C(=O)N[C@@H](Cc1ccc(O)cc1)C(=O)N[C@@H](Cc1ccc(O)cc1)C(=O)N[C@@H](CC(N)=O)C(=O)N[C@@H](Cc1c[nH]c2ccccc12)C(=O)N[C@@H](CC(C)C)C(=O)N[C@H](C(=O)N[C@@H](CCCNC(=N)N)C(=O)N[C@@H](CCC(N)=O)C(=O)N[C@@H](CCCNC(=N)N)C(=O)N[C@@H](Cc1ccc(O)cc1)C(N)=O)[C@@H](C)O)C(C)C)[C@@H](C)O", "note": "[Compound 42, N{alpha-4}-(3-methylbutanoyl)-N{epsilon-7}-(6-[(4S)-4-carboxy-4-(17-carboxyheptadecanamido)butanamido]hexanoyl)[4A,7K,9E,11P,13T,18Q,22V,28Y,30W,31L]-hPYY(4-36)]", "values": [
      {"measurement": "Ki", "setting": "[1]", "result": 1.98, "unit": "nM"},
      {"measurement": "Sol6", "setting": "[2]", "result": 9.8, "unit": "mg/mL"},
      {"measurement": "Sol7", "setting": "[2]", "result": 9.9, "unit": "mg/mL"}
    ]},
    {"smiles": "CC(C)CC(=O)N[C@@H](C)C(=O)N1CCC[C@H]1C(=O)N[C@@H](C)C(=O)N[C@@H](CCCCNC(=O)CCCCCNC(=O)CC[C@H](NC(=O)CCCCCCCCCCCCCCCCC(=O)O)C(=O)O)C(=O)N1CCC[C@H]1C(=O)N[C@@H](CCC(=O)O)C(=O)N[C@@H](C)C(=O)N[C@@H](C)C(=O)N[C@@H](C)C(=O)N[C@@H](CCC(=O)O)C(=O)N1CCC[C@H]1C(=O)N[C@@H](CCC(=O)O)C(=O)N[C@@H](CCC(=O)O)C(=O)N[C@@H](CC(C)C)C(=O)N[C@@H](CCC(N)=O)C(=O)N[C@@H](CCCNC(=N)N)C(=O)N[C@@H](Cc1ccc(O)cc1)C(=O)N[C@@H](Cc1ccc(O)cc1)C(=O)N[C@H](C(=O)N[C@@H](CO)C(=O)N[C@@H](CC(C)C)C(=O)N[C@@H](CCCNC(=N)N)C(=O)N[C@@H](Cc1c[nH]cn1)C(=O)N[C@@H](Cc1ccc(O)cc1)C(=O)N[C@@H](Cc1ccc(O)cc1)C(=O)N[C@@H](CC(N)=O)C(=O)N[C@@H](Cc1c[nH]c2ccccc12)C(=O)N[C@@H](CC(C)C)C(=O)N[C@H](C(=O)N[C@@H](CCCNC(=N)N)C(=O)N[C@@H](CCC(N)=O)C(=O)N[C@@H](CCCNC(=N)N)C(=O)N[C@@H](Cc1ccc(O)cc1)C(N)=O)[C@@H](C)O)C(C)C", "note": "[Compound 43, N{alpha-4}-(3-methylbutanoyl)-N{epsilon-7}-(6-[(4S)-4-carboxy-4-(17-carboxyheptadecanamido)butanamido]hexanoyl)[4A,6A,7K,9E,10A,11A,13E,18Q,22V,28Y,30W,31L]-hPYY(4-36)] (Isovaleryl-APAK([Ahx-γGlu-C18 diacid])PEAAAEPEELQRYYVSLRHYYNWLTRQRY-NH2)", "values": [
      {"measurement": "Ki", "setting": "[1]", "result": 2.49, "unit": "nM"},
      {"measurement": "Sol6", "setting": "[2]", "result": 0.0, "unit": "mg/mL"},
      {"measurement": "Sol7", "setting": "[2]", "result": 0.0, "unit": "mg/mL"}
    ]}
  ]
}
